Laboratory results: publication PMC8586955, “Interaction Study between ESIPT Fluorescent Lipophile-Based Benzazoles and BSA” (Molecules, 2021)

Target: T1, bovine serum albumin (BSA) (Bos taurus, UniProt P02769)
T1 construct: gene ALB
Assay: BSA intrinsic fluorescence quenching titration, ex […] nm
Type: binding
Settings: double-log; PBS pH 7.2, 25 °C, BSA 11 µM, ligand 0-20 µM

T1 sequence (P02769 25-607): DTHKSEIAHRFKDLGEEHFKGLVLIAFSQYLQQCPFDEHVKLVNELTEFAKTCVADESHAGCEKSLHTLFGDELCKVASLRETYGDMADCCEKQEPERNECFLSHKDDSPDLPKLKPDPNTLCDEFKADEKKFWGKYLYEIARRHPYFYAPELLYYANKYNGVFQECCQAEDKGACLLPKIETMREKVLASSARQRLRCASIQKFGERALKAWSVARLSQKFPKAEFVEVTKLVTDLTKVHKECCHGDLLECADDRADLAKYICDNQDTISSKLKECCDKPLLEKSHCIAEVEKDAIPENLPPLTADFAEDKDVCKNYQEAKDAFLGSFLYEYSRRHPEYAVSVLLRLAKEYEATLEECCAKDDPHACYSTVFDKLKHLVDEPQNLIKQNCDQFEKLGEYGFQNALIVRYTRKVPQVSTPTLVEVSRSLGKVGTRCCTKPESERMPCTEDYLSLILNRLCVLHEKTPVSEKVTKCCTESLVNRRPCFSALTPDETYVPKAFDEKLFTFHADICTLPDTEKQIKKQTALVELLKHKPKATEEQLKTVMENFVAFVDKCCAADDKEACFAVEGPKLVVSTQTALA

Row | KA (×10^4 M^-1) | Structure (SMILES)
1 | 0.61 ×10^4 M^−1 | CCCCNCc1cc(C)c(O)c(-c2nc3ccccc3o2)c1 [compound 12, benzazole 12]
2 | 0.74 ×10^4 M^−1 | CCCCCCCCCCCCNCc1cc(C)c(O)c(-c2nc3ccccc3o2)c1 [compound 13, benzazole 13]
3 | 0.59 ×10^4 M^−1 | CCCCCCCCCCCCCCCCCCNCc1cc(C)c(O)c(-c2nc3ccccc3o2)c1 [compound 14, benzazole 14]
4 | 0.73 ×10^4 M^−1 | CCCCNCc1cc(C)c(O)c(-c2nc3ccccc3s2)c1 [compound 15, benzazole 15]
5 | 0.79 ×10^4 M^−1 | CCCCCCCCCCCCNCc1cc(C)c(O)c(-c2nc3ccccc3s2)c1 [compound 16, benzazole 16]
6 | 0.69 ×10^4 M^−1 | CCCCCCCCCCCCCCCCCCNCc1cc(C)c(O)c(-c2nc3ccccc3s2)c1 [compound 17, benzazole 17]
